Experimental findings from the NIST ThermoML archive (doi:10.1021/je800999s) are described below.

A short description of the series: molar heat capacity at constant pressure. The settings on record: 101 kPa, Liquid, Large sample (1 g) DSC.

± gives the expanded uncertainty stated by the source.

With `CN1CCCC1=O` [N-methylpyrrolidone], the “molar heat capacity at constant pressure” value (303.15 K) is 166 ± 7 J/K/mol; the “molar heat capacity at constant pressure” value (308.15 K) is recorded as 167 ± 7 J/K/mol; the “molar heat capacity at constant pressure” value (313.15 K) came out at 168 ± 7 J/K/mol; the “molar heat capacity at constant pressure” value (318.15 K) amounted to 169 ± 7 J/K/mol; the “molar heat capacity at constant pressure” value (323.15 K) is reported as 170 ± 7 J/K/mol; the “molar heat capacity at constant pressure” value (328.15 K) came out at 172 ± 7 J/K/mol. The “molar heat capacity at constant pressure” value is, setting by setting: (333.15 K) 174 ± 7 J/K/mol; (338.15 K) 175 ± 7 J/K/mol; (343.15 K) 176 ± 7 J/K/mol; (348.15 K) 177 ± 8 J/K/mol; (353.15 K) 178 ± 8 J/K/mol.
For `O=CN1CCOCC1` [N-formylmorpholine], the “molar heat capacity at constant pressure” value (303.15 K) is given as 185 ± 8 J/K/mol; the “molar heat capacity at constant pressure” value (308.15 K) is recorded as 186 ± 8 J/K/mol; the “molar heat capacity at constant pressure” value (313.15 K) came to 188 ± 8 J/K/mol; the “molar heat capacity at constant pressure” value (318.15 K) is on record as 189 ± 8 J/K/mol; the “molar heat capacity at constant pressure” value (323.15 K) was determined as 191 ± 8 J/K/mol; the “molar heat capacity at constant pressure” value (328.15 K) amounted to 193 ± 8 J/K/mol. The “molar heat capacity at constant pressure” value runs as follows: (333.15 K) 195 ± 8 J/K/mol; (338.15 K) 197 ± 8 J/K/mol; (343.15 K) 200 ± 9 J/K/mol; (348.15 K) 201 ± 9 J/K/mol; (353.15 K) 202 ± 9 J/K/mol.
Take `O=S1(=O)CCCC1` [sulfolane]: the “molar heat capacity at constant pressure” value runs as follows: (303.15 K) 182 ± 8 J/K/mol; (308.15 K) 184 ± 8 J/K/mol; (313.15 K) 185 ± 8 J/K/mol; (318.15 K) 186 ± 8 J/K/mol; (323.15 K) 188 ± 8 J/K/mol; (328.15 K) 189 ± 8 J/K/mol. Also, the “molar heat capacity at constant pressure” value was found to be 191 ± 8 J/K/mol (333.15 K); 193 ± 8 J/K/mol (338.15 K); 194 ± 8 J/K/mol (343.15 K); 197 ± 8 J/K/mol (348.15 K); 199 ± 8 J/K/mol (353.15 K).
Regarding `COCCOCCOCCOC` [2,5,8,11-tetraoxadodecane], the “molar heat capacity at constant pressure” value runs as follows: (303.15 K) 359 ± 15 J/K/mol; (308.15 K) 364 ± 15 J/K/mol; (313.15 K) 366 ± 16 J/K/mol; (318.15 K) 368 ± 16 J/K/mol; (323.15 K) 370 ± 16 J/K/mol; (328.15 K) 371 ± 16 J/K/mol. Besides, the “molar heat capacity at constant pressure” value by setting is: (333.15 K) 373 ± 16 J/K/mol; (338.15 K) 375 ± 16 J/K/mol; (343.15 K) 379 ± 16 J/K/mol; (348.15 K) 381 ± 16 J/K/mol; (353.15 K) 382 ± 16 J/K/mol.
